The results in this text go back to patent publication US8952024B2, “Herbicidal pyrimidone derivatives” (E I du Pont de Nemours and Company, priority 2009, dated 2015).

One test concerns rice (Oryza sativa). Briefly: Test B flooded paddy test. Format: in vivo. Particulars: 250 g ai/ha; flooded paddy test; visual rating on 0 to 100 scale (0 no effect, 100 complete control) after 13 to 15 days. The essentials: (§1)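 Ratings are visual, 0–100 (100 = complete control), taken versus untreated controls 13 to 15 days after treatment in the greenhouse. Compound went straight into paddy water held 3 cm above soil, applied to 2-leaf-stage plants of four species.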
For `Cc1c(Cl)cccc1-n1c(-c2ccccc2)ncc(C(=O)C2=C(O)CCCC2=O)c1=O` [Compound 40], the “Plant response rating, Flood, Rice” value was 25.

Staying with this test, now noted: Flood (flooded paddy test), 62 g ai/ha; scale 0 to 100, 0 is no effect, 100 is complete control; 13 to 15 days.
For `Cc1c(Cl)cccc1-n1c(-c2ccccc2)ncc(C(=O)C2=C(O)CCCC2=O)c1=O` [Compound 40], the “Plant response rating, Rice” value turned out to be 0.

For the next test, the system named is umbrella sedge (Cyperus difformis). The experiment in a line: Test B flooded paddy test. Format: in vivo. Particulars: 250 g ai/ha; flooded paddy test; visual rating on 0 to 100 scale (0 no effect, 100 complete control) after 13 to 15 days. Put shortly: as §1
Take `Cc1c(Cl)cccc1-n1c(-c2ccccc2)ncc(C(=O)C2=C(O)CCCC2=O)c1=O` [Compound 40]: the “Plant response rating, Flood, Sedge, Umbrella” value was determined as 85.

The test is the same for the next values; noted with them: Flood (flooded paddy test), 62 g ai/ha; scale 0 to 100, 0 is no effect, 100 is complete control; 13 to 15 days.
`Cc1c(Cl)cccc1-n1c(-c2ccccc2)ncc(C(=O)C2=C(O)CCCC2=O)c1=O` [Compound 40]: the “Plant response rating, Sedge, Umbrella” value stood at 70.

The subject of another test is ducksalad (Heteranthera limosa). The experiment in a line: Test B flooded paddy test. Format: in vivo. The conditions noted are these: 250 g ai/ha; flooded paddy test; visual rating on 0 to 100 scale (0 no effect, 100 complete control) after 13 to 15 days. Put shortly:
as §1
With `Cc1c(Cl)cccc1-n1c(-c2ccccc2)ncc(C(=O)C2=C(O)CCCC2=O)c1=O` [Compound 40], the “Plant response rating, Flood, Ducksalad” value stood at 90.

The test is the same for the next values; noted with them: Flood (flooded paddy test), 62 g ai/ha; scale 0 to 100, 0 is no effect, 100 is complete control; 13 to 15 days.
As for `Cc1c(Cl)cccc1-n1c(-c2ccccc2)ncc(C(=O)C2=C(O)CCCC2=O)c1=O` [Compound 40], the “Plant response rating, Ducksalad” value is given as 0.

In the next test the test system is barnyardgrass (Echinochloa crus-galli). The experiment in a line: Test B flooded paddy test. The class given is in vivo. The conditions noted are these: 250 g ai/ha; flooded paddy test; visual rating on 0 to 100 scale (0 no effect, 100 complete control) after 13 to 15 days. Put shortly: as §1
As to `Cc1c(Cl)cccc1-n1c(-c2ccccc2)ncc(C(=O)C2=C(O)CCCC2=O)c1=O` [Compound 40], the “Plant response rating, Flood, Barnyardgrass” value is recorded as 40.

The same test, now with this note: Flood (flooded paddy test), 62 g ai/ha; scale 0 to 100, 0 is no effect, 100 is complete control; 13 to 15 days.
With `Cc1c(Cl)cccc1-n1c(-c2ccccc2)ncc(C(=O)C2=C(O)CCCC2=O)c1=O` [Compound 40], the “Plant response rating, Barnyardgrass” value is recorded as 0.

The next test concerns large crabgrass (Digitaria sanguinalis). The experiment in a line: Test A pre-/postemergence plant response. Particulars: Postemergence, 125 g ai/ha; visual injury, 0 to 100 scale (0 no effect, 100 complete control), approx. ten days. The class given is in vivo. The essentials: (§2)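 Injury scores (0, no effect; 100, complete control) come from visual comparison with untreated controls roughly ten days post-treatment. Test chemicals in a surfactant-containing non-phytotoxic solvent were applied as a directed soil spray preemergence and to one- to two-leaf seedlings postemergence.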
On to `Cc1c(Cl)cccc1-n1c(-c2ccccc2)ncc(C(=O)C2=C(O)CCCC2=O)c1=O` [Compound 40], for which the “Crabgrass, Large plant response rating” value is given as 90.

The same test, now with this note: Postemergence, 500 g ai/ha; 0 to 100 scale, 0 = no effect, 100 = complete control; approx. ten days.
In the case of `Cc1c(Cl)cccc1-n1c(-c2ccccc2)ncc(C(=O)C2=C(O)CCCC2=O)c1=O` [Compound 40], the “Plant response rating, Crabgrass, Large” value is given as 100.

The same test, now with this note: Preemergence, 125 g ai/ha; 0 to 100 scale, 0 = no effect, 100 = complete control.
Regarding `Cc1c(Cl)cccc1-n1c(-c2ccccc2)ncc(C(=O)C2=C(O)CCCC2=O)c1=O` [Compound 40], the “Plant response rating, Crabgrass, Large” value turned out to be 60.

The test is the same for the next values; noted with them: Preemergence, 500 g ai/ha; visual injury, 0 to 100 scale (0 no effect, 100 complete control), approx. ten days.
As for `Cc1c(Cl)cccc1-n1c(-c2ccccc2)ncc(C(=O)C2=C(O)CCCC2=O)c1=O` [Compound 40], the “Plant response rating, Crabgrass, Large” value is given as 100.

For another test, the system named is pigweed (Amaranthus retroflexus). The experiment in a line: Test A pre-/postemergence plant response. Format: in vivo. The conditions noted are these: Postemergence, 125 g ai/ha; visual injury, 0 to 100 scale (0 no effect, 100 complete control), approx. ten days. The essentials: as §2
Take `Cc1c(Cl)cccc1-n1c(-c2ccccc2)ncc(C(=O)C2=C(O)CCCC2=O)c1=O` [Compound 40]: the “Pigweed plant response rating” value is listed as 100.

Still in this test, the particulars now being: Postemergence, 500 g ai/ha; 0 to 100 scale, 0 = no effect, 100 = complete control; approx. ten days.
For `Cc1c(Cl)cccc1-n1c(-c2ccccc2)ncc(C(=O)C2=C(O)CCCC2=O)c1=O` [Compound 40], the “Plant response rating, Pigweed” value was determined as 100.

Still in this test, the particulars now being: Preemergence, 125 g ai/ha; 0 to 100 scale, 0 = no effect, 100 = complete control.
In the case of `Cc1c(Cl)cccc1-n1c(-c2ccccc2)ncc(C(=O)C2=C(O)CCCC2=O)c1=O` [Compound 40], the “Plant response rating, Pigweed” value is 70.

The test is the same for the next values; noted with them: Preemergence, 500 g ai/ha; visual injury, 0 to 100 scale (0 no effect, 100 complete control), approx. ten days.
For the compound `Cc1c(Cl)cccc1-n1c(-c2ccccc2)ncc(C(=O)C2=C(O)CCCC2=O)c1=O` [Compound 40], the “Plant response rating, Pigweed” value was 90.

The subject of a further test is corn (Zea mays). The experiment in a line: Test A pre-/postemergence plant response. Format: in vivo. Particulars: Postemergence, 125 g ai/ha; visual injury, 0 to 100 scale (0 no effect, 100 complete control), approx. ten days. Put shortly:
as §2
On to `Cc1c(Cl)cccc1-n1c(-c2ccccc2)ncc(C(=O)C2=C(O)CCCC2=O)c1=O` [Compound 40], for which the “Corn plant response rating” value worked out at 0.

Staying with this test, now noted: Postemergence, 500 g ai/ha; 0 to 100 scale, 0 = no effect, 100 = complete control; approx. ten days.
In the case of `Cc1c(Cl)cccc1-n1c(-c2ccccc2)ncc(C(=O)C2=C(O)CCCC2=O)c1=O` [Compound 40], the “Plant response rating, Corn” value is given as 50.

Still in this test, the particulars now being: Preemergence, 125 g ai/ha; 0 to 100 scale, 0 = no effect, 100 = complete control.
As to `Cc1c(Cl)cccc1-n1c(-c2ccccc2)ncc(C(=O)C2=C(O)CCCC2=O)c1=O` [Compound 40], the “Plant response rating, Corn” value was 0.

The test is the same for the next values; noted with them: Preemergence, 500 g ai/ha; visual injury, 0 to 100 scale (0 no effect, 100 complete control), approx. ten days.
As for `Cc1c(Cl)cccc1-n1c(-c2ccccc2)ncc(C(=O)C2=C(O)CCCC2=O)c1=O` [Compound 40], the “Plant response rating, Corn” value is reported as 0.

The test system of another test is morningglory (Ipomoea spp.). The experiment in a line: Test A pre-/postemergence plant response. The class given is in vivo. The conditions noted are these: Postemergence, 125 g ai/ha; visual injury, 0 to 100 scale (0 no effect, 100 complete control), approx. ten days. The essentials: as §2
For `Cc1c(Cl)cccc1-n1c(-c2ccccc2)ncc(C(=O)C2=C(O)CCCC2=O)c1=O` [Compound 40], the “Morningglory plant response rating” value is listed as 50.

Staying with this test, now noted: Postemergence, 500 g ai/ha; 0 to 100 scale, 0 = no effect, 100 = complete control; approx. ten days.
In the case of `Cc1c(Cl)cccc1-n1c(-c2ccccc2)ncc(C(=O)C2=C(O)CCCC2=O)c1=O` [Compound 40], the “Plant response rating, Morningglory” value amounted to 100.
